Legend:
[1] = biological target: T1, HiBit-BRG1 fusion protein in stable HeLa cell line expressing HiBit-BRG1 and LgBit (Homo sapiens, UniProt P51532); test: HiBiT-BRG1 cell-based degradation assay (Nano-Glo HiBiT, 24 h); conditions: HeLa HiBit-BRG1/LgBit cells; for DC50: read-out: BRMG1 HiBit Degradation IC50; for Dmax: top dose 30 μM, read-out: BRG1 HiBit Degradation Maximum (%)
T1 construct: expressed in transfected cells
In short: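 Degradation calculated from NanoBiT luminescence relative to DMSO-treated cells (high) and cells given 2 μM known BRM/BRG1 degrader (low). HeLa cells stably expressing HiBiT-BRG1 plus LgBiT were exposed to compound for 24 h before lytic HiBiT detection.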

[2] = biological target: T2, HiBiT-BRM fusion protein in stable HeLa cell line (Homo sapiens, UniProt P51531); test: HiBiT-BRM cell-based degradation assay (Nano-Glo HiBiT Lytic Detection, 24 h); set-up: DC50: scale not given here; conditions: HeLa HiBiT-BRM cells; for DC50: read-out: BRM HiBit Degradation IC50; for BRM HiBit Degradation Maximum (%): top dose 30 μM
T2 construct: expressed in transfected cells
T2 sequence (P51531 whole entry, the tested form may be a part): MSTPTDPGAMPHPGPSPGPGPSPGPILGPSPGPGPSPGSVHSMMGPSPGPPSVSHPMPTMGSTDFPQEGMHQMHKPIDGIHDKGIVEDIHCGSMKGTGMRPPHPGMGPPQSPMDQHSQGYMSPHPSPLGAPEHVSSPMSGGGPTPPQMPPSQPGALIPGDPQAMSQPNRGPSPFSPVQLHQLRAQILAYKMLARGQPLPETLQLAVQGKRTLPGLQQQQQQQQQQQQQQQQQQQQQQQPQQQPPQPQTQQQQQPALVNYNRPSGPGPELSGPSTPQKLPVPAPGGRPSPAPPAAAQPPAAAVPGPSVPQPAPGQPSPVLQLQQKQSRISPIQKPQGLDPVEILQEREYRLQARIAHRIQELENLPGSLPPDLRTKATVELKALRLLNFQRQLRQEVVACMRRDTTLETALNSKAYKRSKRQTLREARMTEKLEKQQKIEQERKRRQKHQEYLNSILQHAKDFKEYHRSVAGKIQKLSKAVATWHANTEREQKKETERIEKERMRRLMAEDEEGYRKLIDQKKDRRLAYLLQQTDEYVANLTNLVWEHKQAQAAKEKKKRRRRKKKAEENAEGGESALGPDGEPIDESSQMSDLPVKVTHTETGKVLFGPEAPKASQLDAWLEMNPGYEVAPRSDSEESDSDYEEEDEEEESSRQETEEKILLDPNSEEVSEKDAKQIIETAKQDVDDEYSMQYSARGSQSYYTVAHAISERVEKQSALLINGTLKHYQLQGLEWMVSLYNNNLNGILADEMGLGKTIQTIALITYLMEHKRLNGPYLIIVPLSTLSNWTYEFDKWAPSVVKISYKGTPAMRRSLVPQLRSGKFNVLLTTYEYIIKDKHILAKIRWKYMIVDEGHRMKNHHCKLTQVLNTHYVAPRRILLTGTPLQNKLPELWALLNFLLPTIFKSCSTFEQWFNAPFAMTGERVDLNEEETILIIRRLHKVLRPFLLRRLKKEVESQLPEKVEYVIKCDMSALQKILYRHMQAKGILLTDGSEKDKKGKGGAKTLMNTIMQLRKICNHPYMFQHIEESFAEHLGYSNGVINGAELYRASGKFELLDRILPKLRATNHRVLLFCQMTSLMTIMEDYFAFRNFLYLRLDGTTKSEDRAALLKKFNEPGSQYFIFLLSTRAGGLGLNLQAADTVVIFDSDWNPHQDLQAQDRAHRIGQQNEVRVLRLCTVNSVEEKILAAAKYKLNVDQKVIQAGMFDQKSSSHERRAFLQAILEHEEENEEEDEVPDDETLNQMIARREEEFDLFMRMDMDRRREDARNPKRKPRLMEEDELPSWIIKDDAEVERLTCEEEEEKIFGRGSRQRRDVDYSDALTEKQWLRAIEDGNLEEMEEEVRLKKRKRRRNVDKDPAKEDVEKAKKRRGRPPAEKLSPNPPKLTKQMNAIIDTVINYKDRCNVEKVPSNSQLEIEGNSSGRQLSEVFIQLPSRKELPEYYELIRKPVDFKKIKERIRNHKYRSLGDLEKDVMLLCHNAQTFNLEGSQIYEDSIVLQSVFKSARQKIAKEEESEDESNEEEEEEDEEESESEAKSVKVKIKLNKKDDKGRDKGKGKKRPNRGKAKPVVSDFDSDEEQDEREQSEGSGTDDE
In short: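 Percent degradation was scaled between DMSO-treated cells and cells given 2 μM of a known BRM/BRG1 degrader. Readout was NanoBiT luminescence after lytic detection. HeLa cells stably expressing HiBiT-BRM were dosed for 24 h, 10 points, 3-fold steps from 30 μM final, in duplicate.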

T1 sequence (P51532 whole entry, the tested form may be a part): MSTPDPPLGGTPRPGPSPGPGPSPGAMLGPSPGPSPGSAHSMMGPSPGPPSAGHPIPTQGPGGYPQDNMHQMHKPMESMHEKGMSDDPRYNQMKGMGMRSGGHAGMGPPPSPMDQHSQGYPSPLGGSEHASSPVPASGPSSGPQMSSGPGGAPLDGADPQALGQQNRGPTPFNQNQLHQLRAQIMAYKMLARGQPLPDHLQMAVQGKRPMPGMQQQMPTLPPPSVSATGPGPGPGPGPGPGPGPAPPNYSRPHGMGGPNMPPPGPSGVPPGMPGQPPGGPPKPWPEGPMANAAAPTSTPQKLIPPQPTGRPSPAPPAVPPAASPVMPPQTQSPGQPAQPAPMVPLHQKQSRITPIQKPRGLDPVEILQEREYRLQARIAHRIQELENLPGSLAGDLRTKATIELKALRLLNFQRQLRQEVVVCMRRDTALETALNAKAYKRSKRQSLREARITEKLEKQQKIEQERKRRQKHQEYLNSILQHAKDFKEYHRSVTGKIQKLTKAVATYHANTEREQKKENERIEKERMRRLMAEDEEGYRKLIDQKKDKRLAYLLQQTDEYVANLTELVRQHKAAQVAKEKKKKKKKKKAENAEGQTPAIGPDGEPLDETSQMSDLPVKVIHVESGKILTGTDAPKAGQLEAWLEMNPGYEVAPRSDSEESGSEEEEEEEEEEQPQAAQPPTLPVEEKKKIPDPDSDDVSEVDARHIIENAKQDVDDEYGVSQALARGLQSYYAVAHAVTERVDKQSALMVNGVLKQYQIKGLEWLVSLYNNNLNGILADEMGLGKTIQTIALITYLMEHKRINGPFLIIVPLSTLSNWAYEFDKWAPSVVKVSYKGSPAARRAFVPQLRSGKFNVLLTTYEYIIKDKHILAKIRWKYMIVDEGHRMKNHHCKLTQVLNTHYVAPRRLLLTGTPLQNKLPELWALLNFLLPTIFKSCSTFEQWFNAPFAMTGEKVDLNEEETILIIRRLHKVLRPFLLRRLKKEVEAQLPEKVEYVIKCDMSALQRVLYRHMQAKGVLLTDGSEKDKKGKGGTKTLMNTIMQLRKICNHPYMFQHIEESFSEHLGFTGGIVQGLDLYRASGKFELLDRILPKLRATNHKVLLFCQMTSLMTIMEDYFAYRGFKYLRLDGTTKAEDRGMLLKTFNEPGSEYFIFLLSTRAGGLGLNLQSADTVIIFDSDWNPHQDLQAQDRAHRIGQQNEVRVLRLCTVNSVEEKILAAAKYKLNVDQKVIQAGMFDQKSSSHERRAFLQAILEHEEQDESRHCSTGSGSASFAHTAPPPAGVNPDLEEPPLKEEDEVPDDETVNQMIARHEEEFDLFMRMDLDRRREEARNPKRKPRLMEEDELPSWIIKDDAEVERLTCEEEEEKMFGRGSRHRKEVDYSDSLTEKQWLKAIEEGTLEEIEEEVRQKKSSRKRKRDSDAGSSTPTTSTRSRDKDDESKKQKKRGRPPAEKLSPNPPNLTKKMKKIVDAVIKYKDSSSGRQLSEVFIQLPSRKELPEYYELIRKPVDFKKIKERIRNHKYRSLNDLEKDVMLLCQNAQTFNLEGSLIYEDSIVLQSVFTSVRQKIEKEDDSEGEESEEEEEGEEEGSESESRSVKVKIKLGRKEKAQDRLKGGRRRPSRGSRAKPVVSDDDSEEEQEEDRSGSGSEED

Row | SMILES | DC50 [1] | Dmax [1] | DC50 [2] | BRM HiBit Degradation Maximum (%) [2]
1 | Cc1ncsc1-c1ccc([C@H](C)NC(=O)[C@@H]2C[C@@H](O)CN2C(=O)[C@@H](c2cc(-c3cnc(N4CC5(CN(c6ccc7cc(-c8ccccc8O)nnc7c6)C5)C4)nc3)no2)C(C)C)cc1 [Compound 231, (2S,4R)-4-hydroxy-1-((R)-2-(3-(2-(6-(3-(2-hydroxyphenyl)cinnolin-7-yl)-2,6-diazaspiro[3.3]heptan-2-yl)pyrimidin-5-yl)isoxazol-5-yl)-3-methylbutanoyl)-N-((S)-1-(4-(4-methylthiazol-5-yl)phenyl)ethyl)pyrrolidine-2-carboxamide] | < 0.01 µM | > 75% | < 0.01 µM | A (“A” indicates maximum degradation ≥75%)
2 | Cc1ncsc1-c1ccc([C@H](C)NC(=O)[C@@H]2C[C@@H](O)CN2C(=O)[C@H](c2cc(-c3cnc(N4CC(c5ccc6nnc(-c7ccccc7O)cc6c5)C4)nc3)no2)C(C)C)cc1 [Compound 5, (2S,4R)-4-hydroxy-1-[(2S)-2-[3-(2-{3-[3-(2-hydroxyphenyl)cinnolin-6-yl]azetidin-1-yl}pyrimidin-5-yl)-1,2-oxazol-5-yl]-3-methylbutanoyl]-N-[(1S)-1-[4-(4-methyl-1,3-thiazol-5-yl)phenyl]ethyl]pyrrolidine-2-carboxamide] | – | < 50% | > 0.1 µM | B (“B” indicates maximum degradation ≥50%)
3 | Cc1ncsc1-c1ccc([C@H](C)NC(=O)[C@@H]2C[C@@H](O)CN2C(=O)[C@@H](c2cc(N3CCC4(CC3)CC(c3ccc5cc(-c6ccccc6O)nnc5c3)C4)no2)C(C)C)cc1 [Compound 26] | > 0.01 µM | > 75% | < 0.01 µM | A (“A” indicates maximum degradation ≥75%)
4 | COC[C@@H]1CN(c2cc([C@H](C(=O)N3C[C@H](O)C[C@H]3C(=O)N[C@@H](C)c3ccc(-c4scnc4C)cc3)C(C)C)on2)CCN1c1ccc2cc(-c3ccccc3O)nnc2c1 [Compound 196, (2S,4R)-4-hydroxy-1-((R)-2-(3-((S)-4-(3-(2-hydroxyphenyl)cinnolin-7-yl)-3-(methoxymethyl)piperazin-1-yl)isoxazol-5-yl)-3-methylbutanoyl)-N-((S)-1-(4-(4-methylthiazol-5-yl)phenyl)ethyl)pyrrolidine-2-carboxamide] | – | < 50% | > 0.01 µM | B (“B” indicates maximum degradation ≥50%)
5 | Cc1ncsc1-c1ccc([C@H](C)NC(=O)[C@@H]2C[C@@H](O)CN2C(=O)[C@H](c2cc(-c3cnc(N4CC[C@@H](c5ccc6cc(-c7ccccc7O)nnc6c5)C4)nc3)no2)C(C)C)cc1 [Compound 19] | – | < 50% | > 0.1 µM | B (“B” indicates maximum degradation ≥50%)
6 | Cc1ncsc1-c1ccc([C@H](C)NC(=O)[C@@H]2C[C@@H](O)CN2C(=O)[C@@H](c2cc(-c3cnc(N4CC(c5cc(Cl)c6cc(-c7ccccc7O)nnc6c5)C4)nc3)no2)C(C)C)cc1 [Compound 36] | – | < 50% | > 0.01 µM | B (“B” indicates maximum degradation ≥50%)
7 | Cc1ncsc1-c1ccc([C@H](C)NC(=O)[C@@H]2C[C@@H](O)CN2C(=O)[C@H](C(C)C)n2cc(N3CC4(CC(c5ccc6cc(-c7ccccc7O)nnc6c5)C4)C3)nn2)cc1 [Compound 212, (2S,4R)-4-hydroxy-1-((S)-2-(4-(6-(3-(2-hydroxyphenyl)cinnolin-7-yl)-2-azaspiro[3.3]heptan-2-yl)-1H-1,2,3-triazol-1-yl)-3-methylbutanoyl)-N-((S)-1-(4-(4-methylthiazol-5-yl)phenyl)ethyl)pyrrolidine-2-carboxamide] | > 0.01 µM | > 75% | < 0.01 µM | A (“A” indicates maximum degradation ≥75%)

Reference: US20260193264A1, “BENZOYPARAZINE PYRAZINES AND THEIR USES” (FOGHORN THERAPEUTICS INC., priority 2022, published 2026)
